Results reported in publication PMC3177041 (Journal of Cachexia, Sarcopenia and Muscle, 2011).

Test system: male Wistar rats
Assay: chronic mild stress model, 1% sucrose consumption
Assay type: in vivo, rat
Conditions: stressed and control groups, 10 mg/kg once daily

CN(C)CCCN1c2ccccc2CCc2ccccc21 [imipramine]
body mass gain in the 5 weeks of treatment vs vehicle-treated controls: gained less body mass
